Test results from patent US8022061B2, “N-aryl pyrazole compounds, compositions, and methods for their use” (Amgen Inc., priority 2006, dated 2011).

System: ob/ob mice
Test: Increase of circulating insulin concentrations in treated ob/ob mice
Type: in vivo
Settings: male ob/ob mice, dose 10 mg/kg p.o., 10 minutes after dosing, relative to control group
Experimental: The results presented below exemplify that administration of the compounds as provided herein to an art-recognized animal model of human diabetes can lead to increased circulating insulin concentrations in the animal model.
Male ob/ob mice were weighed and bled from tail vein, and blood glucose levels were determined with a glucometer. Animals were placed into control and treatment groups having similar averages of glucose levels and body weights. In the morning of the following day, animals were dosed with vehicle (control group) or test article (5 ml/kg, p.o.). Blood samples were collected just before and 10 minutes after dosing, and the samples were assayed for insulin and glucose concentrations.
Table 1 provides exemplary data showing the increase of circulating insulin concentrations (expressed as ng/ml) in treated mice relative to control group at 10 minutes after dosing the treated mice. Concentrations of the exemplary compound tested in the mice are provided in the righthand column.

`CCCCc1c(C(=O)N[C@@H](Cc2c[nH]cn2)C(=O)O)cnn1-c1ncc(C)c(-c2cccs2)n1` [N-({5-Butyl-1-[5-methyl-4-(2-thienyl)pyrimidin-2-yl]-1H-pyrazol-4-yl}carbonyl)-L-histidine] and `CCCc1c(C(=O)NC(CO)c2cncn2C)cnn1-c1ncc(C)c(-c2cccs2)n1` (stereo not drawn) [N-[2-Hydroxy-1-(1-methyl-1H-imidazol-5-yl)ethyl]-1-[5-methyl-4-(2-thienyl)pyrimidin-2-yl]-5-propyl-1H-pyrazole-4-carboxamide] are within 1.5-fold of each other in “Increase in Insulin” value: 4.5 ng/mL for the first, 3.1 ng/mL for the second.

Compared with `CCCc1c(C(=O)NCCc2cncn2C)cnn1-c1ncc(C)c(-c2cccs2)n1` [N-[2-(1-Methyl-1H-imidazol-5-yl)ethyl]-1-[5-methyl-4-(2-thienyl)pyrimidin-2-yl]-5-propyl-1H-pyrazole-4-carboxamide], `CCCCc1c(C(=O)NCc2c(C)ncn2CC(N)=O)cnn1-c1ncc(C)c(-c2cccs2)n1` [N-{[1-(2-Amino-2-oxoethyl)-4-methyl-1H-imidazol-5-yl]methyl}-5-butyl-1-[5-methyl-4-(2-thienyl)pyrimidin-2-yl]-1H-pyrazole-4-carboxamide] is 2.4-fold lower in “Increase in Insulin” value: 9.5 ng/mL for the first, 4 ng/mL for the second.

Same assay, conditions: male ob/ob mice, dose 30 mg/kg p.o., 10 minutes after dosing, relative to control group

For `CCCc1c(C(=O)NCc2cncn2C)cnn1-c1ncc(C)c(-c2cccs2)n1` [N-[(1-Methyl-1H-imidazol-5-yl)methyl]-1-[5-methyl-4-(2-thienyl)pyrimidin-2-yl]-5-propyl-1H-pyrazole-4-carboxamide], the “Increase in Insulin” value was 28.5 ng/mL.

System: C57B6 mice
Test: Glucose lowering effect after oral glucose challenge in C57B6 mice
Type: in vivo
Settings: male C57B6 mice, p.o. 30 minutes before oral glucose 3 g/kg; blood glucose before, 20 and 50 minutes after challenge; relative to control group
Experimental: The following example describes the glucose lowering effect of compounds observed in vivo.
Male C57B6 mice were placed into control and treatment groups having similar averages of body weights. Then, animals were dosed with vehicle (control group) or test article (5 ml/kg, p.o.). Thirty minutes after dosing, glucose (3 g/kg) was orally administered in each animal. Blood samples were collected just before, 20 minutes and 50 minutes after glucose challenge and glucose concentrations in the samples was assessed. The values in Table 2 represent the observed % AUC reduction of blood glucose in the treated animals relative to the control group.

Going from `CCOCc1c(C(=O)NCc2c(CO)ncn2C)cnn1-c1ncc(C)c(N2CCc3ccccc3C2)n1` [1-[4-(3,4-Dihydroisoquinolin-2(1H)-yl)-5-methylpyrimidin-2-yl]-5-(ethoxymethyl)-N-{[4-(hydroxymethyl)-1-methyl-1H-imidazol-5-yl]methyl}-1H-pyrazole-4-carboxamide] to `CCOCc1c(C(=O)NCc2c(CO)ncn2C)cnn1-c1ncc(C)c(-c2cccs2)n1` [5-(Ethoxymethyl)-N-{[4-(hydroxymethyl)-1-methyl-1H-imidazol-5-yl]methyl}-1-[5-methyl-4-(2-thienyl)pyrimidin-2-yl]-1H-pyrazole-4-carboxamide], the “% AUC reduction in glucose levels” value falls from 63% to 35%.

First: COCc1c(C(=O)NCc2c(CO)ncn2C)cnn1-c1ncc(C)c(-c2ccoc2)n1 [1-[4-(3-Furyl)-5-methylpyrimidin-2-yl]-N-[{4-(hydroxymethyl)-1-methyl-1H-imidazol-5-yl]methyl}-5-(methoxymethyl)-1H-pyrazole-4-carboxamide]
Second: CCCc1c(C(=O)NCc2c(CO)ncn2C)cnn1-c1ncc(C)c(-c2ccoc2)n1 [1-[4-(3-Furyl)-5-methylpyrimidin-2-yl]-N-{[4-(hydroxymethyl)-1-methyl-1H-imidazol-5-yl]methyl}-5-propyl-1H-pyrazole-4-carboxamide]
The “% AUC reduction in glucose levels” value of the first is higher: 29% for the first, 19% for the second.

`CCOCc1c(C(=O)NCc2cncn2C)cnn1-c1ncc(C)c(NC2CCCCC2)n1` [1-[4-(Cyclohexylamino)-5-methylpyrimidin-2-yl]-5-(ethoxymethyl)-N-[(1-methyl-1H-imidazol-5-yl)methyl]-1H-pyrazole-4-carboxamide] and `CCOCc1c(C(=O)NCc2cncn2C)cnn1-c1ncc(C)c(N2CCCCC2)n1` [5-(Ethoxymethyl)-N-((1-methyl-1H-imidazol-5-yl)methyl)-1-(5-methyl-4-(piperidin-1-yl)pyrimidin-2-yl)-1H-pyrazole-4-carboxamide] are the same in “% AUC reduction in glucose levels” value: 42% for the first, 42% for the second.

First: CCOCc1c(C(=O)NCc2c(CO)ncn2C)cnn1-c1ncc(Cl)c(-c2cccs2)n1 [1-[5-Chloro-4-(2-thienyl)pyrimidin-2-yl]-5-(ethoxymethyl)-N-{[4-(hydroxymethyl)-1-methyl-1H-imidazol-5-yl]methyl}-1H-pyrazole-4-carboxamide]
Second: CCOCc1c(C(=O)NCc2cncn2C)cnn1-c1ncc(C)c(-c2cccs2)n1 [5-(Ethoxymethyl)-N-((1-methyl-1H-imidazol-5-yl)methyl)-1-(5-methyl-4-(thiophen-2-yl)pyrimidin-2-yl)-1H-pyrazole-4-carboxamide]
The “% AUC reduction in glucose levels” value of the first is higher: 41% for the first, 16% for the second.

First: CCCCc1c(C(=O)NCc2c(C)ncn2C(C)(C)C(=O)O)cnn1-c1ncc(C)c(-c2cccs2)n1 [2-(5-{[({5-Butyl-1-[5-methyl-4-(2-thienyl)pyrimidin-2-yl]-1H-pyrazol-4-yl}carbonyl)amino]methyl}-4-methyl-1H-imidazol-1-yl)-2-methylpropanoic acid]
Second: CCCCc1c(C(=O)NCc2c(C)nc3ccccn23)cnn1-c1ncc(C)c(-c2cccs2)n1 [5-Butyl-N-[(2-methylimidazo[1,2-a]pyridin-3-yl)methyl]-1-[5-methyl-4-(2-thienyl)pyrimidin-2-yl]-1H-pyrazole-4-carboxamide]
The “% AUC reduction in glucose levels” value of the first is lower: 15% for the first, 35% for the second.

Compared with `COCCc1c(C(=O)NCc2cncn2C)cnn1-c1ncc(C)c(-c2cccs2)n1` [5-(2-Methoxyethyl)-N-[(1-methyl-1H-imidazol-5-yl)methyl]-1-[5-methyl-4-(2-thienyl)pyrimidin-2-yl]-1H-pyrazole-4-carboxamide], `CCOCc1c(C(=O)NCc2cncn2C)cnn1-c1ncc(C)c(-c2nccs2)n1` [5-(Ethoxymethyl)-N-[(1-methyl-1H-imidazol-5-yl)methyl]-1-[5-methyl-4-(1,3-thiazol-2-yl)pyrimidin-2-yl]-1H-pyrazole-4-carboxamide] is higher in “% AUC reduction in glucose levels” value: 25% for the first, 41% for the second.

`CCOCc1c(C(=O)NCc2cncn2C)cnn1-c1ncc(C)c(-c2ccco2)n1` [5-(Ethoxymethyl)-1-[4-(2-furyl)-5-methylpyrimidin-2-yl]-N-[(1-methyl-1H-imidazol-5-yl)methyl]-1H-pyrazole-4-carboxamide] and `CCOCc1c(C(=O)NCc2cncn2C)cnn1-c1ncc(C)c(-c2ccsc2)n1` [5-(Ethoxymethyl)-N-[(1-methyl-1H-imidazol-5-yl)methyl]-1-[5-methyl-4-(3-thienyl)pyrimidin-2-yl]-1H-pyrazole-4-carboxamide] are the same in “% AUC reduction in glucose levels” value: 51% for the first, 51% for the second.

First: CCOCc1c(C(=O)NCc2cncn2C)cnn1-c1ncc(C)c(-c2ccccc2)n1 [5-(Ethoxymethyl)-N-[(1-methyl-1H-imidazol-5-yl)methyl]-1-(5-methyl-4-phenylpyrimidin-2-yl)-1H-pyrazole-4-carboxamide]
Second: CCOCc1c(C(=O)NCc2cncn2C)cnn1-c1ncc(C)c(N2CCCC2)n1 [5-(Ethoxymethyl)-N-[(1-methyl-1H-imidazol-5-yl)methyl]-1-(5-methyl-4-pyrrolidin-1-ylpyrimidin-2-yl)-1H-pyrazole-4-carboxamide]
The “% AUC reduction in glucose levels” value of the first is higher: 35% for the first, 18% for the second.

First: CCOCc1c(C(=O)NCc2cncn2C)cnn1-c1ncc(C)c(N2CC(F)(F)C(F)(F)C2)n1 [5-(Ethoxymethyl)-N-[(1-methyl-1H-imidazol-5-yl)methyl]-1-[5-methyl-4-(3,3,4,4-tetrafluoropyrrolidin-1-yl)pyrimidin-2-yl]-1H-pyrazole-4-carboxamide]
Second: CCCCc1c(C(=O)NCc2cncn2C)cnn1-c1ncc(Cl)c(NC2CC2)n1 [5-Butyl-1-[5-chloro-4-(cyclopropylamino)pyrimidin-2-yl]-N-[(1-methyl-1H-imidazol-5-yl)methyl]-1H-pyrazole-4-carboxamide]
The “% AUC reduction in glucose levels” value of the first is higher: 11% for the first, 7% for the second.

Compared with `CCCCc1c(C(=O)NCc2cnc3ccccn23)cnn1-c1ncc(Cl)c(NC2CC2)n1` [5-Butyl-1-[5-chloro-4-(cyclopropylamino)pyrimidin-2-yl]-N-(imidazo[1,2-a]pyridin-3-ylmethyl)-1H-pyrazole-4-carboxamide], `CCCCc1c(C(=O)NCc2cnc3cc(C(=O)OC)ccn23)cnn1-c1ncc(Cl)c(NC2CC2)n1` [Methyl 3-{[({5-butyl-1-[5-chloro-4-(cyclopropylamino)pyrimidin-2-yl]-1H-pyrazol-4-yl}carbonyl)amino]methyl}imidazo[1,2-a]pyridine-7-carboxylate] is lower in “% AUC reduction in glucose levels” value: 32% for the first, 24% for the second.

Going from `CCCCc1c(C(=O)NCc2cnc3ccccn23)cnn1-c1ncc(C)c(N2CCCC2)n1` [5-Butyl-N-(imidazo[1,2-a]pyridin-3-ylmethyl)-1-(5-methyl-4-pyrrolidin-1-ylpyrimidin-2-yl)-1H-pyrazole-4-carboxamide] to `CCCc1c(C(=O)NCc2c(CO)ncn2C)cnn1-c1ncc(C)c(N2CCOCC2)n1` [N-{[4-(Hydroxymethyl)-1-methyl-1H-imidazol-5-yl]methyl}-1-(5-methyl-4-morpholin-4-ylpyrimidin-2-yl)-5-propyl-1H-pyrazole-4-carboxamide], the “% AUC reduction in glucose levels” value falls from 34% to 6%.
